Peptide text beside a SMILES is read from it.

Test [1] has as its system HIV-1. The conditions noted are these: for Mean p24: CEM cells, 100 μM, culture supernatant, day 11 after infection (FIG. 2), inf. control 1.62; for inhibition of HIV-1 replication (in words): infected CEM cells, 100 μM concentration.
Description: By one approach, virus was added at 50–100 TCID50 to 3×10^5 H9 cells in a total volume of 500 μl containing RPMI 1640 medium supplemented with 10% (v/v) heat-inactivated fetal bovine serum (FBS), L-Glutamine, and Bensylpenicillin and Streptomycin (PS) (approximately 0.5 ml added to 500 ml RPMI medium), all available through LifeTechnology/GIBCO laboratories. […] The virus and cells were then mixed gently on a vortex and were incubated at 37° C. for one hour and thirty minutes. Next, the cells were pelleted at 1200 rpm for 7 minutes and the supernatant was discarded.
(§1) The cells were then resuspended in RPMI++ at a concentration of 3×10^5 cells per ml. […] Cells were then incubated at 37° C. in a 5% CO2 enriched incubator. The medium was changed on day 4, 7, and finally day 11. The infection was stopped on day 11 or 14. During each media change, approximately 0.8 ml was replaced and 0.8 ml of the supernatant was transferred to a sterile 96 well plate and stored at −80° C. for p24 analysis.
(§2) The presence of p24 in the supernatants was determined using a p24 antigen detection method. […] By one approach, a capture-assay is employed, wherein the viral antigen is captured on a 96-well plate coated with a polyclonal anti-p24 rabbit serum (Swedish Institute for infectious disease control). The captured antigen is then detected with peroxidase conjugated anti-p24 mouse monoclonal antibodies. The conjugate is a pool of three different monoclonal antibodies. The analysis was performed with cell free supernatant directly from the cell culture or with supernatant that had been stored at −20° C. to −80° C.
Accordingly, a p24 standard was diluted (e.g., 4, 2, 1, 0.5, 0.25, 0.125, 0.0625 ng/ml) in RPMI++ media. The standard, recombinant HIV-1 LAI gag p24, was purchased from NIBSC, Centralized Facility for AIDS Reagent, MRC. (order no EVA620). In some cases, serial dilutions of the supernatants were made so as to more accurately detect p24 concentration. Coated plates (e.g., plates coated with a polyclonal anti-p24 rabbit serum) were washed 4 times with approximately 300–350 μl/well washing buffer (PBS with 0.05% Tween-20). The plates were inverted and tapped against absorbant paper after each wash to discard the superfluous washing buffer. Approximately, 100 μl of each sample and standard was added to individual wells on the plate. The plates were covered with tape and incubated at 37° C. for 2 hours or in the dark at room temperature over night.
Next, the plates were washed again as above. Approximately 100 μl/well of conjugate diluted in conjugate buffer (PBS with 0.5% Triton X-100, 0.5% Bovine Serum Albumin, 0.05% Tween-20, and 10% Fetal Bovine Serum). The plates were then covered with tape and incubated at 37° C. for 2 to 4 hours. The OPD substrate (ABBOTT) was then prepared by adding 1 tablet of OPD per 5 ml OPD substrate solution (12.8 mg OPD (o-phenylenediamine. 2 HCl) per tablet and 1 tablet was dissolved in 5 ml citrate-phosphate buffer containing 0.02% hydrogen peroxidase). The solution was kept in the dark until it was used. The conjugate bound plates were then washed as above and, after the final wash, 100 μof OPD substrate solution/well was added and the plates were incubated at room temperature for 30 minutes.
Test [2] relates to HIV-1. The conditions noted are these: for effect on HIV replication/infectivity (in words): 100 μM concentration; for p24 ng/ml Mean: 100 μM peptide, culture supernatant, day 7 after infection (FIG. 1), infected control 53.31.
Excerpt: The tripeptide amides made according to EXAMPLE 1 were used in several HIV-1 infectivity assays to determine the ability of said tripeptide amides to inhibit HIV replication and/or infection. The efficiency of HIV-1 replication and status of HIV-1 infection was monitored by the concentration of p24 protein in the cell supernatant.
In a first set of experiments, approximately 3×10^5 H9 cells were infected with HIV-1 (e.g., 50–100 TCID50 per 300,000 H9 cells) to test the inhibitory effect of various tripeptide amides provided at 100 μM concentration.
By one approach, virus was added at 50–100 TCID50 to 3×10^5 H9 cells in a total volume of 500 μl containing RPMI 1640 medium supplemented with 10% (v/v) heat-inactivated fetal bovine serum (FBS), L-Glutamine, and Bensylpenicillin and Streptomycin (PS) (approximately 0.5 ml added to 500 ml RPMI medium), all available through LifeTechnology/GIBCO laboratories. This media is referred to as “RPMI++ media.” Cell counting was accomplished using 0.2% tryphanblue dissolved in PBS and a Bürker cell counter chamber. The virus and cells were then mixed gently on a vortex and were incubated at 37° C. for one hour and thirty minutes. Next, the cells were pelleted at 1200 rpm for 7 minutes and the supernatant was discarded.
as §1, §2
Accordingly, a p24 standard was diluted (e.g., 4, 2, 1, 0.5, 0.25, 0.125, 0.0625 ng/ml) in RPMI++ media. […] In some cases, serial dilutions of the supernatants were made so as to more accurately detect p24 concentration. Coated plates (e.g., plates coated with a polyclonal anti-p24 rabbit serum) were washed 4 times with approximately 300–350 μl/well washing buffer (PBS with 0.05% Tween-20). The plates were inverted and tapped against absorbant paper after each wash to discard the superfluous washing buffer. Approximately, 100 μl of each sample and standard was added to individual wells on the plate. The plates were covered with tape and incubated at 37° C. for 2 hours or in the dark at room temperature over night.
Next, the plates were washed again as above. Approximately 100 μl/well of conjugate diluted in conjugate buffer (PBS with 0.5% Triton X-100, 0.5% Bovine Serum Albumin, 0.05% Tween-20, and 10% Fetal Bovine Serum). The plates were then covered with tape and incubated at 37° C. for 2 to 4 hours.
The subject of test [3] is HIV. In words: Electron microscopy of HIV budding in treated HUT78 cells (nodular structures). Format: cell-based.
Test [4] has as its system HIV. Briefly: Electron microscopy of HIV budding in treated ACH-2 cells (nodular structures). Format: cell-based.
The mark [5] stands for this setting: HIV infected H9 cells, 100 μM, day 11 (FIG. 3).
Setting [6] is: ACH-2 cells, electron microscopy.

As to `NCC(=O)N[C@@H](Cc1ccc(O)cc1)C(=O)NCC(N)=O` [GYG-NH2, glycyl-tyrosyl-glycine-amide] (H-Gly-Tyr-Gly-NH2), in the test on HIV-1 [1], the “Mean p24” value was 0.02 ng/mL and the “inhibition of HIV-1 replication (in words)” value is listed as “inhibited HIV-1 replication”.

On to `NCC(=O)O` [G-OH, glycine], for which the “p24 present in the culture supernatant” value in the test on HIV-1 [2] (setting [5]) was “approximately 65 ng/ml”. Besides, in the test on HIV-1 [1], the “Mean p24” value was found to be 1.73 ng/mL and the “inhibition of HIV-1 replication (in words)” value is given as “an inhibition of HIV-1 replication was not observed”.

With `CC(C)C[C@H](NC(=O)CN)C(=O)NCC(N)=O` [GLG-NH2, glycyl-leucyl-glycine-amide] (H-Gly-Leu-Gly-NH2), in the test with HIV-1 [2] (H9 cells), the “effect on HIV replication/infectivity (in words)” value is given as “almost completely inhibited HIV replication” and the “p24 ng/ml Mean” value was 2.71 ng/mL.

Turning to `C[C@H](N)C(=O)N1CCC[C@H]1C(=O)NCC(N)=O` [APG-NH2, alanyl-prolyl-glycine-amide] (H-Ala-Pro-Gly-NH2), in the test on HIV-1 [2] (H9 cells), the “effect on HIV replication/infectivity (in words)” value is reported as “almost completely inhibited HIV replication” and the “p24 ng/ml Mean” value amounted to 1.13 ng/mL. Also, in the test with HIV-1 [1], the “Mean p24” value was 0.01 ng/mL and the “inhibition of HIV-1 replication (in words)” value is on record as “inhibit HIV-1 replication”.

On to `NCC(=O)N[C@@H](Cc1c[nH]c2ccccc12)C(=O)NCC(N)=O` [GWG-NH2, glycyl-tryptophanyl-glycine-amide] (H-Gly-Trp-Gly-NH2), for which, in the test with HIV-1 [2] (H9 cells), the “effect on HIV replication/infectivity (in words)” value was “almost completely inhibited HIV replication” and the “p24 ng/ml Mean” value is 0.61 ng/mL. Besides, in the test with HIV-1 [1], the “Mean p24” value amounted to 0.15 ng/mL and the “inhibition of HIV-1 replication (in words)” value is recorded as “inhibit HIV-1 replication”.

Regarding `CC(C)C[C@H](NC(=O)[C@H](C)N)C(=O)NCC(N)=O` [ALG-NH2, alanyl-leucyl-glycine-amide] (H-Ala-Leu-Gly-NH2), in the test with HIV [3], the “dense nodular structure attached to the outer part of viral envelope” value (“dense nodular structure attached” for short) was determined as 8% and the “treated cells carrying virus particles that had nodular structures on outer membrane” value is on record as 56%.

For `CC[C@H](C)[C@H](NC(=O)[C@H](C)N)C(=O)NCC(N)=O` [AIG-NH2, alanyl-isoleucyl-glycine-amide] (H-Ala-Ile-Gly-NH2), in the test on HIV-1 [2] (H9 cells), the “effect on HIV replication/infectivity (in words)” value is given as “almost completely inhibited HIV replication” and the “p24 ng/ml Mean” value is 10.69 ng/mL.

On to `NCC(=O)N[C@@H](Cc1ccccc1)C(=O)NCC(N)=O` [GFG-NH2, glycyl-phenylalanyl-glycine-amide] (H-Gly-Phe-Gly-NH2), for which, in the test on HIV-1 [2] (H9 cells), the “effect on HIV replication/infectivity (in words)” value is “almost completely inhibited HIV replication” and the “p24 ng/ml Mean” value worked out at 0.45 ng/mL. Further, in the test on HIV-1 [1], the “Mean p24” value stood at 0.08 ng/mL and the “inhibition of HIV-1 replication (in words)” value was “inhibit HIV-1 replication”.

Turning to `NCC(=O)N1CCC[C@H]1C(=O)NCC(N)=O` [GPG-NH2, glycyl-prolyl-glycine-amide, reference compound] (H-Gly-Pro-Gly-NH2), in the test on HIV-1 [2] (H9 cells), the “effect on HIV replication/infectivity (in words)” value is “almost completely inhibited HIV replication” and the “p24 ng/ml Mean” value was found to be 0.42 ng/mL. Also, the “nodules in cells not stimulated with PMA to produce virus (in words)” value in the test with HIV [4] (ACH-2 cells, 1 mM, no PMA stimulation) is listed as “did not show such nodules”. Further, in the test with HIV [4] (setting [6]), the “dense nodular structure attached” value came to 2% and the “treated cells carrying virus particles that had nodular structures on outer membrane” value amounted to 74%. Moreover, the “nodules upon combined treatment with protease inhibitor ritonavir (in words)” value in the test with HIV [4] (PMA stimulated ACH-2 cells, GPG-NH2 1 mM plus ritonavir 2 μM) was “gave no such nodules”. In the test on HIV [3], the “dense nodular structure attached” value was determined as 4% and the “treated cells carrying virus particles that had nodular structures on outer membrane” value came to 65%. Moreover, the “Mean p24” value in the test on HIV-1 [1] is 0.07 ng/mL.

Turning to “α-tertiary-butylglycine-prolyl-glycine-amide [tbutGPG-NH2]”, in the test on HIV-1 [2] (H9 cells), the “effect on HIV replication/infectivity (in words)” value was “almost completely inhibited HIV replication” and the “p24 ng/ml Mean” value was found to be 0.44 ng/mL. In addition, in the test with HIV-1 [1], the “Mean p24” value is -0.01 ng/mL and the “inhibition of HIV-1 replication (in words)” value is on record as “inhibit HIV-1 replication”.

“prolyl-glycine-arginine-amide [PGR-NH2, reference compound]”: in the test with HIV-1 [2] (H9 cells), the “effect on HIV replication/infectivity (in words)” value was “little affect on HIV infectivity” and the “p24 ng/ml Mean” value stood at 55.93 ng/mL.

For `CC(C)C[C@H](N)C(=O)N[C@@H](CC(N)=O)C(=O)N[C@@H](Cc1ccccc1)C(N)=O` [LNF-NH2, leucyl-asparagyl-phenylalanine-amide, reference compound] (H-Leu-Asn-Phe-NH2), the “Mean p24” value with HIV-1 [1] was found to be 1.45 ng/mL.

Turning to `NCC(N)=O` [G-NH2, glycine amide], the “inhibition of HIV replication at 20 μM (in words)” value in the test with HIV-1 [2] (H9 cells, 20 μM, p24 at day 11 after infection (FIG. 4)) is recorded as “almost completely inhibited HIV replication”. Also, the “dose dependence of inhibition of HIV replication (in words)” value with HIV-1 [2] (H9 cells, 0.5–20 μM, p24 at day 11 after infection (FIG. 4)) is recorded as “inhibits HIV replication in a dose dependent manner”. Also, in the test on HIV-1 [2] (H9 cells, p24 at day 11 after infection, 0.5–20 μM tested (FIG. 4)), the “concentration at which significant inhibition of HIV replication was achieved” value is on record as “less than 5 μM”. The “amount of p24 in culture supernatant compared with controls (in words)” value in the test on HIV-1 [2] (setting [5]) is “almost identical to that found in the non-infected control”. Besides, in the test with HIV-1 [1], the “Mean p24” value stood at 0.04 ng/mL and the “inhibition of HIV-1 replication (in words)” value is given as “inhibited HIV-1 replication”.

On to “fenylalanyl-leucyl-glycine-amide [FLG-NH2]”, for which, in the test with HIV-1 [2] (H9 cells), the “effect on HIV replication/infectivity (in words)” value is “almost completely inhibited HIV replication” and the “p24 ng/ml Mean” value was 0.25 ng/mL. Besides, in the test on HIV-1 [1], the “Mean p24” value was 0.00 ng/mL and the “inhibition of HIV-1 replication (in words)” value is listed as “inhibit HIV-1 replication”.

With `NCC(=O)NCC(=O)NCC(N)=O` [GGG-NH2, glycyl-glycyl-glycine-amide, reference compound] (H-Gly-Gly-Gly-NH2), in the test on HIV-1 [2] (H9 cells), the “effect on HIV replication/infectivity (in words)” value is “little affect on HIV infectivity” and the “p24 ng/ml Mean” value came to 61.82 ng/mL.

The values are drawn from patent publication US7012129B2, “Antiviral composition comprising glycine amide” (priority 2001, dated 2006).
